Experimental data reported in US7070943B2 (priority 1998, dated 2006).

Key:
[1] = tested on: pRB; assay: Western blot of pRB in HL-60 cells with anti-pRB^P− and anti-pRB^T mAbs; assay type: cell-based, human; conditions: HL-60, treated versus control
Excerpt: FIG. 10 presents a Western blot showing reactivity of anti-pRB^P− mAb(A) and anti-pRB^T mAb with proteins extracted from control (CON) and PMA-treated cells.
To reveal specificity of the antibodies used in these experiments, a standard Western blotting procedure was used on cellular lysates, as described in Gong et al., Cell Growth Differ. 6:1485–1493 (1995).

[2] = tested on: HL-60 cells; assay: Cell cycle arrest and apoptosis of HL-60 cells during induced differentiation; assay type: cell-based, human
Procedure: Control cells were treated with an equivalent concentration of ethanol (<0.02%). […]

[3] = tested on: total pRB; assay: pRB^T in differentiating HL-60 cells, flow cytometry; assay type: cell-based, human; conditions: RA 5×10^−7 M 5 days, vitamin D3 10^−8 M 6 days
Procedure: (§1) The human promyelocytic leukemic cell line HL-60 was kindly provided by Dr. Harry A. Crissman of the Los Alamos National Laboratory (Los Alamos, N. Mex.). The cells were maintained in RPMI 1640 supplemented with 10% fetal calf serum, 100 units/ml penicillin, 100 μg/ml streptomycin, and 2 mM L-glutamine at a density between 2 and 8×10^5 cells/ml at 37.5° C. in the mixture of 95% air and 5% CO2 for the periods of time described in the legends to the respective figures. During the exponential phase of cell growth, at densities below 8×10^5 cells/ml, the mean duration of the cell cycle of these cells is 23 hours (estimated as described in Darzynkiewicz, “Mammalian cell cycle analysis,” in The Cell Cycle: A Practical Approach, P. Fantes and R. Brooks, Eds., pp. 45–68 (Oxford Univ. Press, Oxford, UK, (1993)), and the mean duration of G1, S, G2, and M 11, 9, 2, and 1 h, respectively. The medium, supplements, and antibiotics were obtained from Life Technologies (Grand Island, N.Y.).
(§2) All-trans retinoic acid (RA), 1,25-dihydroxy vitamin D3 (vitamin D3), and phorbol myristate acetate (PMA) were purchased from Sigma Chemical Co. (St. Louis, Mo.). […] Control cells were treated with an equivalent concentration of ethanol (<0.02%). Stock solution of PMA at 1.6 mM was prepared in DMSO, stored at −20° C. in the dark, and used at a final concentration of 4×10^−8 M. The cultures were kept shielded from light. […]
(§3) Methods were essentially as described in Example 1. […] The cells were then rinsed with PBS containing 1% BSA, counterstained with 4,6-diamidino-2-phenyl indole (DAPI) (Molecular Probes Inc., Eugene, Oreg.), and their fluorescence was measured by flow cytometry.
(§4) Cellular fluorescence was measured with the ELITE ESP flow cytometer/cell sorter (Coulter Inc., Miami, Fla.) using an argon ion laser (emission at 488 nm) combined with a helium-cadmium laser (emitting UV light). DNA content was analyzed based on DAPI fluorescence (blue emission) excited by UV light, while the anti-pRb^P− mAb (FITC)-related emission and anti-pRB^T (CYCHROME®)-related emission was excited with blue light laser. To obtain the mean fluorescence values as shown in FIGS. 7–10, the cells were gated based on differences in their DNA content to distinguish cells in G1, S, and G2/M, and from the mean values of the FITC fluorescence the mean value of the respective control cells (FITC-conjugated isotype-matched IgG1) in the same phase of the cycle was subtracted. The mean values of S phase cells were multiplied by 0.75 and of G2/M cells by 0.5 to express the pRB-associated cell fluorescence per unit of DNA. The data were normalized to the mean fluorescence value of G1 cells from the untreated, control culture (100), as shown in FIGS. 7–10.

[4] = tested on: pRB; assay: pRB^P−/pRB^T ratio in differentiating HL-60 cells, flow cytometry; assay type: cell-based, human; conditions: RA 5×10^−7 M 5 days, vitamin D3 10^−8 M 6 days
Procedure: Briefly, the cells were fixed in suspension in 1% formaldehyde in PBS for 15 min on ice, then washed with PBS, and resuspended in ice-cold 80% ethanol for up to 24 h. […] The cells were then rinsed with PBS containing 1% BSA, counterstained with 4,6-diamidino-2-phenyl indole (DAPI) (Molecular Probes Inc., Eugene, Oreg.), and their fluorescence was measured by flow cytometry.

[5] = tested on: hypophosphorylated pRB; assay: pRB^P− in differentiating HL-60 cells, flow cytometry; assay type: cell-based, human; conditions: RA 5×10^−7 M 5 days, vitamin D3 10^−8 M 6 days
Procedure: as §1, §2, §3, §4

[6] = tested on: lymphocytes; conditions: 20 nM; cited from earlier work
[7] = tested on: cyclin D3; conditions: lymphocytes, 20 nM; cited from earlier work
[8] = tested on: underphosphorylated pRB; assay: pRB phosphorylation in mitogen-stimulated lymphocytes, anti-pRB^P− mAb flow cytometry; assay type: cell-based, Human
Procedure: (§5) Human peripheral blood lymphocytes, obtained from healthy volunteers by venipuncture, were isolated by density gradient centrifugation. The cells were washed twice with phosphate-buffered saline (PBS), resuspended in RPMI 1640 medium supplemented with 10% fetal calf serum, 100 units/ml penicillin, 100 μg/ml streptomycin and 2 mM L-glutamine at a density of 10^6 cells/ml, treated with 10 μg/ml of phytohemagglutinin (PHA) and incubated at 37.5° C. in the mixture of 95% air and 5% CO2 for the periods of time shown in the respective figure legends. The medium, supplements, and antibiotics were obtained from Life Technologies (Grand Island, N.Y.), PHA from Sigma Chemical Co. (St. Louis, Mo.).
Stock solution of staurosporine (STP; Kamiya Biomedical Co., Thousand Oaks, Calif.) was made in dimethyl sulfoxide (DMSO) at a concentration 0.2 mM and was stored at −20° C.
The cells were washed with PBS and fixed in suspension in 1% formaldehyde in PBS for 15 min on ice. The cells were then washed with PBS and resuspended in ice-cold 80% ethanol for up to 24 h. After fixation the cells were rinsed twice with PBS and resuspended in 100 μl of PBS containing 0.25% Triton X-100 (Sigma), 1% bovine serum albumin (BSA; Sigma) and 1.2 μg/ml of the anti-pRB^T mAb (clone G3-245; PharMingen cat. No. 14001A) conjugated with CYCHROME® and/or with 1 μg/ml of anti-pRB^P− mAb (clone G99-549; PharMingen cat. No. 14441A), conjugated with FITC and incubated for 2 hours at room temperature. The cells were then rinsed with PBS containing 1% BSA and their fluorescence was measured by flow cytometry.
Cellular fluorescence was measured with the ELITE ESP flow cytometer/cell sorter (Coulter Inc., Miami, Fla.) using either an argon ion laser (emission at 488 nm) alone or combined with a helium-cadmium laser (emitting UV light). In the first case, fluorescence signals were collected using the standard configuration of the flow cytometer (green fluorescence, representing FITC labeled anti-pRB^P− mAb; red fluorescence representing CyChrome tagged anti-pRB^T mAb). In the second case, DNA content was analyzed based on DAPI fluorescence (blue emission) excited by UV light, while the anti-pRB^P− mAb FITC-related emission and anti-pRB^T CYCHROME®-related emission was excited with blue light laser. Unless noted, the procedures for multicolor measurement of cellular fluorescence and multivariate cell analysis were essentially as described in Juan et al., Cell. Prolif. 29:259–266 (1996) and Juan et al., Exper. Cell Res. 227:197–202 (1996). The experiments were repeated several times, on lymphocytes obtained from three different donors, yielding essentially identical results.

[9] = tested on: cyclin D3; assay: Cyclin D3 expression in mitogen-stimulated lymphocytes, flow cytometry; assay type: cell-based, Human; conditions: 10 μg/ml
Procedure: as §5
After cell fixation (as described above) the cells were washed twice with PBS, suspended in 1 ml of 0.25% Triton X-100 in PBS, kept on ice for 5 min, centrifuged (300 g; 5 min) and the cell pellet resuspended in 100 μl of PBS containing 0.5 μg of the anti-cyclin D3 mAb (clone G107-565, mouse IgG,; PharMingen cat. No. 14781) and 1% BSA and incubated for 2 hours at room temperature. […] The cells were rinsed again, resuspended in 5 μg/ml of PI and 0.1% RNase in PBS and incubated at room temperature for 20 min prior to fluorescence measurements. Isotype-matched IgG (Sigma) was used as a control to define the background fluorescence. […]

[10] = tested on: total pRB; assay: Total pRB in mitogen-stimulated lymphocytes, anti-pRB^T mAb flow cytometry; assay type: cell-based, Human; conditions: 10 μg/ml, throughout all times of exposure
Procedure: as §5
The cells were washed with PBS and fixed in suspension in 1% formaldehyde in PBS for 15 min on ice. […] The cells were then rinsed with PBS containing 1% BSA and their fluorescence was measured by flow cytometry.
Cellular fluorescence was measured with the ELITE ESP flow cytometer/cell sorter (Coulter Inc., Miami, Fla.) using either an argon ion laser (emission at 488 nm) alone or combined with a helium-cadmium laser (emitting UV light). In the first case, fluorescence signals were collected using the standard configuration of the flow cytometer (green fluorescence, representing FITC labeled anti-pRB^P− mAb; red fluorescence representing CyChrome tagged anti-pRB^T mAb). […]

CCCCCCCCCCCCCC(=O)O[C@@H]1[C@@H](C)[C@@]2(O)[C@@H](C=C(CO)C[C@]3(O)C(=O)C(C)=C[C@@H]23)[C@@H]2C(C)(C)[C@]12OC(C)=O [PMA, phorbol myristate acetate]
bands of hypophosphorylated, hyperphosphorylated and total pRB, Western blot [1]: increased intensity bands | cell cycle arrest on induced differentiation [2]: cell arrest primarily in G0/1

CC1=C(/C=C/C(C)=C/C=C/C(C)=C/C(=O)O)C(C)(C)CCC1 [RA, All-trans retinoic acid]
increase in pRB^T of G0/1 cells versus untreated cultures [3]: 60% | pRB^T of S and G2/M cells versus untreated cultures [3]: nearly twofold higher | pRB^P−/pRB^T level of S and G2/M phase cells versus control [4]: over fivefold higher | increase in pRB^P− of G0/1 cells [5]: fourfold | pRB^P− of S and G2/M phase cells versus control cultures [5]: over an order of magnitude higher | cell cycle arrest on induced differentiation [2]: cell arrest primarily in G0/1

CN[C@@H]1C[C@H]2O[C@@](C)([C@@H]1OC)n1c3ccccc3c3c4c(c5c6ccccc6n2c5c31)C(=O)NC4 [STP, staurosporine]
arrest of lymphocytes in cell cycle [6]: arrests lymphocytes in G1 | induction of cyclin D3 [7]: does not interfere with the induction of cyclin D3 | appearance of the cell population unreactive with anti-pRB^P− mAb (pRB phosphorylation) ([8]; lymphocytes stimulated with PHA 24 hours, 20 nM): precluded the appearance of the cell population unreactive with anti-pRB^P− mAb

C=C1/C(=C\C=C2/CCC[C@]3(C)[C@@H]([C@H](C)CCCC(C)(C)O)CC[C@@H]23)C[C@@H](O)C[C@@H]1O [vitamin D3, 1,25-dihydroxy vitamin D3]
increase in pRB^T of G0/1 cells versus untreated cultures [3]: 20% | pRB^T of S and G2/M cells versus untreated cultures [3]: nearly twofold higher | increase in pRB^P− of G0/1 cells [5]: fourfold | pRB^P− of S and G2/M phase cells versus control cultures [5]: over an order of magnitude higher | cell cycle arrest on induced differentiation [2]: cell arrest primarily in G0/1

phytohemagglutinin [PHA]
proportion of cyclin D3-positive cells ([9]; at 12 h): ~70% | proportion of cyclin D3-positive cells ([9]; at 24 h): 40% | frequency of cells reactive with anti-pRB^T mAb [10]: over 80% | percentage of anti-pRB^P− mAb negative cells ([8]; 10 μg/ml, at 24 h): 45% | fraction of lymphocytes that did not react with anti-pRB^P− mAb ([8]; 10 μg/ml, between 4 and 12 hours): ~80% | percentage of anti-pRB^P− mAb negative cells ([8]; 10 μg/ml, decreasing from 98 between 3 and 4 hours of stimulation): about 20% | percentage of anti-pRB^P− mAb negative cells ([8]; 10 μg/ml, up to 14 h): about 20%
